Among the data in ChEMBL document CHEMBL5465560, “Selectivity Literature for EUbOPEN Chemogenomic Library” (2024) are % of control and % of inhibition values, retold here.

In assay [1] the target is Tyrosine-protein kinase Srms (Homo sapiens) (UniProt Q9H3Y6). As to the kind of experiment: Selectivity interaction (ProQinase) EUB0000171b SRMS.
In assay [2] the test system is Epidermal growth factor receptor (Homo sapiens), P00533 [UNDEFINED MUTATION]. As to the kind of experiment: Selectivity interaction (Ambit KINOMEscan and KiNATiv profiling in Jurkat cells) EUB0000090b EGFR. The note with it: at 1 µM. Format: cell-based.
Assay [3] addresses Serine/threonine-protein kinase MRCK gamma (Homo sapiens) (UniProt Q6DT37). The assay can be described thus: Selectivity interaction (KinomeScan (DiscoverX)) EUB0001079a CDC42BPG. The note with it: at 1 µM.
The target of assay [4] is Rho-associated protein kinase 2 (Homo sapiens, UniProt O75116). The assay can be described thus: Selectivity interaction (KinomeScan (DiscoverX)) EUB0001049a ROCK2. The note with it: at 1 µM.
Assay [5] has as its target T1, Serine/threonine-protein kinase Nek5 (Homo sapiens) (UniProt Q6P3R8).
T1 sequence (whole entry): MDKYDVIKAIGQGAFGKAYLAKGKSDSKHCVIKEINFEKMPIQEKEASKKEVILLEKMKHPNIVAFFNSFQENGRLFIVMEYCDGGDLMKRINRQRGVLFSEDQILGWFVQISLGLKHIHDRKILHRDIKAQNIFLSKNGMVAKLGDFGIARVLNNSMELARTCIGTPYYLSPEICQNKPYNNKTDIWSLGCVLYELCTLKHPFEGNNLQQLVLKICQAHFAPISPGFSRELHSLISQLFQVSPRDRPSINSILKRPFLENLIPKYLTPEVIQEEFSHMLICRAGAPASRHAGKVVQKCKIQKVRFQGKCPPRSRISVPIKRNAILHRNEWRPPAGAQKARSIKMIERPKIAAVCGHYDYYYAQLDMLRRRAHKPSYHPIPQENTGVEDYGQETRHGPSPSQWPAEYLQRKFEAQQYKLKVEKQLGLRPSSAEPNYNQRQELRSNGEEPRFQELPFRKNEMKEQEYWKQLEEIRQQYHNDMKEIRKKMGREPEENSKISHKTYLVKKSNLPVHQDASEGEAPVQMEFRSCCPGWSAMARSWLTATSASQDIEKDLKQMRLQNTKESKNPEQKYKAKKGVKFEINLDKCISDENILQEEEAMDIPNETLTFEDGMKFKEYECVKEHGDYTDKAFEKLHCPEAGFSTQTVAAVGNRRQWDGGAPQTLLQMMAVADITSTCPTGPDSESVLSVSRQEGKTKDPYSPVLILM
The assay can be described thus: Selectivity interaction (KinomeScan (DiscoverX)) EUB0000655a NEK5. The conditions noted are these: at 10 µM.

Assay [6] addresses T2, Tyrosine-protein kinase ITK/TSK (Homo sapiens) (UniProt Q08881).
T2 sequence (whole entry): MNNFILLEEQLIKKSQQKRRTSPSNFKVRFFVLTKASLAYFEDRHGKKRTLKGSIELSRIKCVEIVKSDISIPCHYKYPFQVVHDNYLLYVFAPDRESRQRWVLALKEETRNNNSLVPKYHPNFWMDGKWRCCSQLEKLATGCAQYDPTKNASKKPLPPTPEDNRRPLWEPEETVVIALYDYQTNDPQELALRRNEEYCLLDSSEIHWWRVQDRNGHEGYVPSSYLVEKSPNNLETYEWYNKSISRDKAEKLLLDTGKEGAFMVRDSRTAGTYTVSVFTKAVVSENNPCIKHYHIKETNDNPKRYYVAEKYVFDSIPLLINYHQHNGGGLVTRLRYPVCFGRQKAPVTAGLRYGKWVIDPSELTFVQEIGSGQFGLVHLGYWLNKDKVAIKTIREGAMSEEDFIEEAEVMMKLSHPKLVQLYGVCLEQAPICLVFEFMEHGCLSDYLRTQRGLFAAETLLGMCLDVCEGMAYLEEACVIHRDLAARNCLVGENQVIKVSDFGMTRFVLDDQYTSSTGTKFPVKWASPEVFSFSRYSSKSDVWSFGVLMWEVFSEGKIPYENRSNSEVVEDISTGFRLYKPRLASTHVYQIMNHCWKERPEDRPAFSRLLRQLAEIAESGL
As to the kind of experiment: Selectivity interaction (KinomeScan (DiscoverX)) EUB0000045b ITK.

Assay [7] has as its system Epidermal growth factor receptor (Homo sapiens), P00533 [UNDEFINED MUTATION]. The assay can be described thus: Selectivity interaction (KinomeScan (DiscoverX)) EUB0000666a EGFR. The conditions noted are these: at 10 µM.
In assay [8] the target is Serine/threonine-protein kinase 38-like (Homo sapiens) (UniProt Q9Y2H1). As to the kind of experiment: Selectivity interaction (KinomeScan (DiscoverX)) EUB0000666a STK38L. The note with it: at 10 µM.
The target of assay [9] is Serine/threonine-protein kinase Chk2 (Homo sapiens) (UniProt O96017). As to the kind of experiment: Selectivity interaction (Kinase panel (Z-LYTE Assay)) EUB0001632a CHEK2. The note with it: at 10 µM.
The target of assay [10] is Ribosomal protein S6 kinase alpha-3 (Homo sapiens, UniProt P51812). The assay can be described thus: Selectivity interaction (KinomeScan (DiscoverX)) EUB0000607a RPS6KA3. The conditions noted are these: at 10 µM.
Assay [11] has as its target SRSF protein kinase 3 (Homo sapiens) (UniProt Q9UPE1). The assay can be described thus: Selectivity interaction (Kinase panel (Invitrogen)) EUB0000639a SRPK3. The conditions noted are these: at 200 nM.
Assay [12] deals with Serine/threonine-protein kinase PLK3 (Homo sapiens, UniProt Q9H4B4). The assay can be described thus: Selectivity interaction (KinomeScan (DiscoverX)) EUB0001619a PLK3. The note with it: at 1 µM.
For assay [13], the target named is T3, Hormonally up-regulated neu tumor-associated kinase (Homo sapiens) (UniProt P57058).
T3 sequence (whole entry): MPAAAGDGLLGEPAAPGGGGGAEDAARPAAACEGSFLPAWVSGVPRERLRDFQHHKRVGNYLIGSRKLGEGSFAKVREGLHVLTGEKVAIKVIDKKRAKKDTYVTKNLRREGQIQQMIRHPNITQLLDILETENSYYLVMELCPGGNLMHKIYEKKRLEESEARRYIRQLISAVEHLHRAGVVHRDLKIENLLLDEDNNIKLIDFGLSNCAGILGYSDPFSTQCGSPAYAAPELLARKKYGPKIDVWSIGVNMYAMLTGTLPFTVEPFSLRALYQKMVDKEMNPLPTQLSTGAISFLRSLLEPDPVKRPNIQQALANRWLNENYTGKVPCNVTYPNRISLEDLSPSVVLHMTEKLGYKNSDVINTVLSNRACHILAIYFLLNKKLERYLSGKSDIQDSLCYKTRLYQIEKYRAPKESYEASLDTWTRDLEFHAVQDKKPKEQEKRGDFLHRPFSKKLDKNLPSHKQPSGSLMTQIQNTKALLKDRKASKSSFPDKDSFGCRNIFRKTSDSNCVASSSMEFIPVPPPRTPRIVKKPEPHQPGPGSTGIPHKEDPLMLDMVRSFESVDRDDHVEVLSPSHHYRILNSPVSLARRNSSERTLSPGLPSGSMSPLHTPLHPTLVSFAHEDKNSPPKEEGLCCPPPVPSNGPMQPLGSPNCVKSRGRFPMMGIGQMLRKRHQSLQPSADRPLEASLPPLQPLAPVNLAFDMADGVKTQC
The assay can be described thus: Selectivity interaction (KinomeScan (DiscoverX)) EUB0001619a HUNK. The note with it: at 1 µM.

Assay [14] deals with Serine/threonine-protein kinase Nek4 (Homo sapiens) (UniProt P51957). As to the kind of experiment: Selectivity interaction (KinomeScan (DiscoverX)) EUB0000618a NEK4. The note with it: at 10 µM.
Sequence of Serine/threonine-protein kinase Nek4 (Homo sapiens) (P51957 whole entry, looked up): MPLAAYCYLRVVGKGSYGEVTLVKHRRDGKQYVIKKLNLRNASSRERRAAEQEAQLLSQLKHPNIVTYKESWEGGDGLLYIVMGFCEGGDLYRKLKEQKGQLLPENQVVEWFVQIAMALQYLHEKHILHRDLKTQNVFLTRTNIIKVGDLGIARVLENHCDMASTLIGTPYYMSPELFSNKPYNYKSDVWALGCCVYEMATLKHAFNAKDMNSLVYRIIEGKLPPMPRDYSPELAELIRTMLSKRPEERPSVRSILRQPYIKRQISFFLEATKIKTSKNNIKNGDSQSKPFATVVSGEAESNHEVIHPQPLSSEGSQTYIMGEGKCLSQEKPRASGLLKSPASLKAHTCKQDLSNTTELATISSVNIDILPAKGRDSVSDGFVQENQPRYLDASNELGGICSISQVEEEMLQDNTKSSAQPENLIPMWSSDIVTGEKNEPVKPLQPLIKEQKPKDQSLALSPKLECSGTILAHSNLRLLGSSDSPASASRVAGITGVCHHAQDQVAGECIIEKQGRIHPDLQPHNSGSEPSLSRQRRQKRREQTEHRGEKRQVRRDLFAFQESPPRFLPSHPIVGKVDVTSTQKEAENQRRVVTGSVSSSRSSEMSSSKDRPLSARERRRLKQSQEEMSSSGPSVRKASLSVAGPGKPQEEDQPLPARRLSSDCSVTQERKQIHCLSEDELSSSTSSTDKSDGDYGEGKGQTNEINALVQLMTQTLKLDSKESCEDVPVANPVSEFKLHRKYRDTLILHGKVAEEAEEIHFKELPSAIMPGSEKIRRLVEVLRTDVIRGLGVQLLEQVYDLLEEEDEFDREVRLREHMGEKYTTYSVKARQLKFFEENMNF

Sequence of Tyrosine-protein kinase Srms (Homo sapiens) (Q9H3Y6 whole entry): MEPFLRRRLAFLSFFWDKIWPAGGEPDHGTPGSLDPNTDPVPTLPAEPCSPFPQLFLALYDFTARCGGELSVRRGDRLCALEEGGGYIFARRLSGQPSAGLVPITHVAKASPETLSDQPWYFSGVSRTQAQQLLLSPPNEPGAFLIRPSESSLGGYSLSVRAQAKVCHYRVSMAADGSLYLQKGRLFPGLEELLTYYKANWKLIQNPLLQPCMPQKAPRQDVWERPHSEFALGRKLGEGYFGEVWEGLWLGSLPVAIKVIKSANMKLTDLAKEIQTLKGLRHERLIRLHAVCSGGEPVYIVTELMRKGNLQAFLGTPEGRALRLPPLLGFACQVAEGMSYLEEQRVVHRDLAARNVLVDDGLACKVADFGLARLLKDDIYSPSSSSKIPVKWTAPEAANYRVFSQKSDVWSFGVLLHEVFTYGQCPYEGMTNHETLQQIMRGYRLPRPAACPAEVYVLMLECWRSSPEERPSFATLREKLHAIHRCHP
Sequence of Epidermal growth factor receptor (Homo sapiens), P00533 [UNDEFINED MUTATION] (P00533 whole entry, looked up, change not shown): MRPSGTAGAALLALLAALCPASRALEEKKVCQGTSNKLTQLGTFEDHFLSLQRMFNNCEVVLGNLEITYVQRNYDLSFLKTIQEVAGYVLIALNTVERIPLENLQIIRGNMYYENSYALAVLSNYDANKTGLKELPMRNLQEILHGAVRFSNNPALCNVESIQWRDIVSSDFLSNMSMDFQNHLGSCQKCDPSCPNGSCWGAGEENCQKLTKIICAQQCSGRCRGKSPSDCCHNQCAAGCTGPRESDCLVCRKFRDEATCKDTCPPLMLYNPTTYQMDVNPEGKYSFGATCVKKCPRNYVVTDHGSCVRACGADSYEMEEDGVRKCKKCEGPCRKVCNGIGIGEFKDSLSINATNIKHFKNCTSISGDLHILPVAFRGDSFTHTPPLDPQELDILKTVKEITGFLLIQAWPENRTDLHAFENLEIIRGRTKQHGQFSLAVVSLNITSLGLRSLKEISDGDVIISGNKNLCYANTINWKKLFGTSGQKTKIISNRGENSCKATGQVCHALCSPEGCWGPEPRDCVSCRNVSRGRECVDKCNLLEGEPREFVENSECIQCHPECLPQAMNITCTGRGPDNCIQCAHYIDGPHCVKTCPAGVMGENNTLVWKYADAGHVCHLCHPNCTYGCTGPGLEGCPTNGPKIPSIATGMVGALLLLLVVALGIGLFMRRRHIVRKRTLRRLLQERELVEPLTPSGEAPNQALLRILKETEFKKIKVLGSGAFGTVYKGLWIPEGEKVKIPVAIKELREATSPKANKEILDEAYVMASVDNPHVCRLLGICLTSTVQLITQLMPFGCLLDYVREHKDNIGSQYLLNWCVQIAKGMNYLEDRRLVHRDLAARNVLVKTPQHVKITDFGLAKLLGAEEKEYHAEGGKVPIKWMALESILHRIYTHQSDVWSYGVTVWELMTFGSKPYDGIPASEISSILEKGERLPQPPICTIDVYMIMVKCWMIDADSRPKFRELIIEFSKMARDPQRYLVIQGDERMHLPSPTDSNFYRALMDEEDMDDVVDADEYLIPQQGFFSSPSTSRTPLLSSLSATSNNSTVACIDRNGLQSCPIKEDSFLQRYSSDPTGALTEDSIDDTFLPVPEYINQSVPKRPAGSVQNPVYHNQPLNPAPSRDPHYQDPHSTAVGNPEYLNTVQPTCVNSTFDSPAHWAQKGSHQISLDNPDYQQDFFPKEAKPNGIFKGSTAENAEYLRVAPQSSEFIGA
Sequence of Ribosomal protein S6 kinase alpha-3 (P51812 whole entry): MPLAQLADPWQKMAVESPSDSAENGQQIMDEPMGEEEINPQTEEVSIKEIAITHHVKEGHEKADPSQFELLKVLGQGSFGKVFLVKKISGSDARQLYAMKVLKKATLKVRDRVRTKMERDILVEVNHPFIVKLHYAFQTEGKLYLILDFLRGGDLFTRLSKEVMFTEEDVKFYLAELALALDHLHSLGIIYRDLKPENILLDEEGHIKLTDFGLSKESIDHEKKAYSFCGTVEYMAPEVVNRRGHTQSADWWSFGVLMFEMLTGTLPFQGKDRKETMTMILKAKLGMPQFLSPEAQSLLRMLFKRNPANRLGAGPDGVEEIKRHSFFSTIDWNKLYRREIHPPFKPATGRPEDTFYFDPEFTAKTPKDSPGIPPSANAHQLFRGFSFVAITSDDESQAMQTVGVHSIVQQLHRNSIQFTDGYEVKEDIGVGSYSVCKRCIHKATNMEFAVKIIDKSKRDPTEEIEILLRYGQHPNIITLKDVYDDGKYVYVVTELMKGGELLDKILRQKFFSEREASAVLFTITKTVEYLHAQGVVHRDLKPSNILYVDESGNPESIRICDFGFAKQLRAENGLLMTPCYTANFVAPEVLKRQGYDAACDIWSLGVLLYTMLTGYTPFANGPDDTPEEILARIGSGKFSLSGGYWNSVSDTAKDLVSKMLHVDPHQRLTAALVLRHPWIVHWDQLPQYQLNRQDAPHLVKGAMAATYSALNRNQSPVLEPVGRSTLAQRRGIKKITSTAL
Sequence of SRSF protein kinase 3 (Homo sapiens) (Q9UPE1 whole entry): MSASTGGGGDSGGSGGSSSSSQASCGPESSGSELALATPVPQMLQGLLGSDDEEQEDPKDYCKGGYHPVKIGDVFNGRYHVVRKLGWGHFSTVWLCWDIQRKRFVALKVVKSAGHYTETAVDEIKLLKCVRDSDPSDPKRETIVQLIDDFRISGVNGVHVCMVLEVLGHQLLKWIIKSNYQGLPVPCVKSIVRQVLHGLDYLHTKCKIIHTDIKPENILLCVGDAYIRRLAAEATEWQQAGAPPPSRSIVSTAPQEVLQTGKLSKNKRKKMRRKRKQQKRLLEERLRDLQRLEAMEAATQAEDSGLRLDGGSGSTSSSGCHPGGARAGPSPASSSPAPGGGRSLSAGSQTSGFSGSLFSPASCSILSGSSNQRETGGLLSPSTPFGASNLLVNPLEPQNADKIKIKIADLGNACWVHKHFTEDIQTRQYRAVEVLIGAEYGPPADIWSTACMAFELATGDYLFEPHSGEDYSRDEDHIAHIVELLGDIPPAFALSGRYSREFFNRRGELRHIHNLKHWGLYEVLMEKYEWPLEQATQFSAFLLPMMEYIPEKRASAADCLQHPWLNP
Sequence of Serine/threonine-protein kinase PLK3 (Q9H4B4 whole entry, looked up): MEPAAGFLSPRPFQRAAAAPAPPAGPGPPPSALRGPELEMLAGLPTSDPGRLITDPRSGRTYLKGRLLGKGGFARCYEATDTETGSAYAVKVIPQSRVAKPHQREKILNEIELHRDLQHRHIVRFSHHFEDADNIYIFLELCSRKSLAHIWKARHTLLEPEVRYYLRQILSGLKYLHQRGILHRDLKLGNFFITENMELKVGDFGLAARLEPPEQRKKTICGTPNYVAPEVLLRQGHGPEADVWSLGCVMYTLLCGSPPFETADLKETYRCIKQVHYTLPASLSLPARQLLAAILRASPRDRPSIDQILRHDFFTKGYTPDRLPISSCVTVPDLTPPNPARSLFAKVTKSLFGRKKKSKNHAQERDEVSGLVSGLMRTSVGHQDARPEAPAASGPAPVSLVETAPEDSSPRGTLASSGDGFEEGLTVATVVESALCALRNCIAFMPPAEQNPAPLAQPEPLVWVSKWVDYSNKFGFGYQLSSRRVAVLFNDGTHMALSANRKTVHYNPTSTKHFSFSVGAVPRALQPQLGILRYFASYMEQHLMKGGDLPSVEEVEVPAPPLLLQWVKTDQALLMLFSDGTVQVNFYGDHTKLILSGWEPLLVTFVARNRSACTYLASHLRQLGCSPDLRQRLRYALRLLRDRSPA
Sequence of Serine/threonine-protein kinase 38-like (Homo sapiens) (Q9Y2H1 2-464 limits assumed): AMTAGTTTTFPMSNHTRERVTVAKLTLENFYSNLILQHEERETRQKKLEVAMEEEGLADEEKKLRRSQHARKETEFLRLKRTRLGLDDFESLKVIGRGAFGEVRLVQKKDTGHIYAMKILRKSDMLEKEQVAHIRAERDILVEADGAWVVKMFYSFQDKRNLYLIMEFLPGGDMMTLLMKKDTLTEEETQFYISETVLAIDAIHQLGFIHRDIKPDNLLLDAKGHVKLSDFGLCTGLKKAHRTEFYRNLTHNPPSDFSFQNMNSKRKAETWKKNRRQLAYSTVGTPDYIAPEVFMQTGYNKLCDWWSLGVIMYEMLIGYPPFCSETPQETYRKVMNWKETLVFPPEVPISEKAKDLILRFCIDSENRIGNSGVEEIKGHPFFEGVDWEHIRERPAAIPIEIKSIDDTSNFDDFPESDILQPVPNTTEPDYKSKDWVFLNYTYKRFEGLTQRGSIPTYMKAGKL

On to `C=CC(=O)Nc1cccc(C(=O)Nc2ccc(Nc3cc(-c4[nH]c(SC)nc4C)ccn3)cc2)c1`, for which the % of control came to 95% in assay [1] (at 1 µM) and 92% in [1] (at 5 µM).

Molecule `CN(C)C/C=C/C(=O)Nc1ccc(C(=O)N2CCCC(Nc3ncc(Cl)c(-c4c[nH]c5ccccc45)n3)C2)cc1` (stereo unspecified) displayed a % of control in assay [2] of 94%.

For the molecule `Nc1cnc(N2CCc3cc(S(=O)(=O)Nc4c(F)cc(Cl)cc4F)cc(N4CCCC4=O)c32)nc1` [TP-020n], the % of control in [3] was found to be 100%.

As for `COc1cc(Nc2nc(C)cc(-c3cnn4nc(OC)ccc34)n2)cc(C(F)(F)F)c1`, the % of control in assay [4] turned out to be 100%.

As to `CN(C)CCOc1ccc(-c2nc(-c3ccncc3)c(-c3ccc4c(c3)CC/C4=N\O)[nH]2)cc1`, the % of control in [5] stood at 74%.

For `C=CC(=O)Nc1cc(-n2c(=O)ccc3cnc4ccc(-c5ccc(NS(C)(=O)=O)cc5)cc4c32)ccc1C`, the % of control in [6] (at 1 µM) worked out at 52%; in assay [6] (at 10 µM), 43%.

For `O=C(NOC[C@H](O)CO)c1ccc(F)c(F)c1Nc1ccc(I)cc1F`, the % of control in [7] amounted to 59%; in assay [8], 100%.

In [9], `Cn1cc(-n2cnc3c(NCc4nc5cc(Cl)c(Cl)cc5[nH]4)nc(N4CCOCC4)nc32)cn1` came in with a % of control of 12.8%.

Regarding `CNC(=O)Nc1ccc(-c2nc(N3CC4CCC(C3)O4)c3cnn(C4CCC5(CC4)OCCO5)c3n2)cc1`, the % of control in [10] turned out to be 100%.

`CC[C@@H]1[C@H](F)C(=O)N[C@@H]1COc1nccc2cc(C(N)=O)c(OC)cc12` [ZIMLOVISERTIB] registered a % of inhibition in assay [11] of 8.65%.

Turning to `N#Cc1cccc(-c2c[nH]c3ncnc(N4CCOCC4)c23)c1`, the % of control in assay [12] and in assay [13] was 100% in each case.

Consider `O[C@H]1CC[C@H](Nc2ncc3nc(Nc4c(F)cc(F)cc4F)n([C@H]4CCOC4)c3n2)CC1`, for which the % of control in [14] worked out at 100%.
